SMILES strings stand for the structures.

The target in the test is T1, α1 and β1 subunits of guanylate cyclase (sGC), expressed in Sf9 cells (Homo sapiens, UniProt Q02108+Q02153).
T1 construct: made in house; host or cells: Sf9 insect cells (baculovirus co-infection); high-speed supernatant used unpurified
T1 sequence (Q02108 1-690): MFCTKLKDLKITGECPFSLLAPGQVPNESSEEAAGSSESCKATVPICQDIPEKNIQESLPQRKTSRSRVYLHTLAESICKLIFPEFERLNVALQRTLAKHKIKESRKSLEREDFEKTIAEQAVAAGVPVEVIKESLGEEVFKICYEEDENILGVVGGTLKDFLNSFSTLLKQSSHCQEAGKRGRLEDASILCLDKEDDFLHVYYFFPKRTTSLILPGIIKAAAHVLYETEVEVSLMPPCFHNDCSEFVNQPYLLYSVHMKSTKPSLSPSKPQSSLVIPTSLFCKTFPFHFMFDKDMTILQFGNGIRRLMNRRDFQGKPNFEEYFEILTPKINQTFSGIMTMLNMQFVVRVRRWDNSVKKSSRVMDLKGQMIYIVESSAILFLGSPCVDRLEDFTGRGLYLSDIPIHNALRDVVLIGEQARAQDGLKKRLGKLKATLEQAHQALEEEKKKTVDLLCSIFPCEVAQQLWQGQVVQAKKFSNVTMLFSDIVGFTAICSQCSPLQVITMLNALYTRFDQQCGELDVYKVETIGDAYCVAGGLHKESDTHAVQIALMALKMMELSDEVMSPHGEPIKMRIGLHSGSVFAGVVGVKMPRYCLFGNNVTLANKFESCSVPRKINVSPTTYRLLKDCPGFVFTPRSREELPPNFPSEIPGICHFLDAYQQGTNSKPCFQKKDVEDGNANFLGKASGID
T1 sequence (Q02153 1-619): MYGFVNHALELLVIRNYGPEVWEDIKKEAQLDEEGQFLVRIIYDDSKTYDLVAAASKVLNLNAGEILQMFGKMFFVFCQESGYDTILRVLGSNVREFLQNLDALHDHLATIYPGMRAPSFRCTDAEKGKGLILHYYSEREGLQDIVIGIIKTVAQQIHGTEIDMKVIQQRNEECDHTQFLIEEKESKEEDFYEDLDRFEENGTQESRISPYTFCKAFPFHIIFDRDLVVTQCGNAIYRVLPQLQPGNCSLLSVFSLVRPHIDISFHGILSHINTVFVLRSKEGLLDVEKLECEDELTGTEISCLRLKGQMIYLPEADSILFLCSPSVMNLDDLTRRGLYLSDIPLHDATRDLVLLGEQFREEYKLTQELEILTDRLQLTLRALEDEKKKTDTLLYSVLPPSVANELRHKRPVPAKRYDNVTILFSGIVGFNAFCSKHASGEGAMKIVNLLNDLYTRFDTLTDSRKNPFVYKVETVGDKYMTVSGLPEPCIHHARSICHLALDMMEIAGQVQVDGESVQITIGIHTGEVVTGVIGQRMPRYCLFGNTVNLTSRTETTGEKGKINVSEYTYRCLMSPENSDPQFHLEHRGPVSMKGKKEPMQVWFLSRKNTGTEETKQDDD
In words: Guanylate Cyclase Assay (formation of cyclic GMP from GTP). It is filed as biochemical. The conditions noted are these: for Mean efficacy at 100 μM with 1 μM of SNP, [% of YC-1]: compound at 100 μM with 1 μM sodium nitroprusside (SNP), normalized to 100 μM YC-1 (without SNP) as 100%; for Emax at 100 µM: compound at 100 μM without SNP, normalized to activity of 100 μM YC-1 (without SNP) as 100%, read-out: Mean basal efficacy at 100 μM, [% of YC-1]; for Mean activation at 100 μM: (activity at 100 μM with 1 μM SNP − activity at 100 μM)/(activity of SNP at 1 μM − basal activity of sGC). How it is done: Sf9 cells were cultured in Sf-90011 medium supplemented with 10% (v/v) fetal calf serum at 28° C. to give a count of 6×10^5 cells/ml. The cells were then infected with a mixture of the virus stocks for the α1 and β1 subunits of guanylate cyclase at a multiplicity of infection of 0.1 pfu/cell. The cells were harvested 72 hours after infection and were pelleted by centrifugation. The resulting cell pellets were homogenized with Polytron homogenizer in 3 volumes of 20 mM Tris-HCl (pH 7.6) containing 1 mM EDTA, 5 mM dithiothreitol, 90 mM NaCl, 10% glycerol, and protease inhibitors mix (Roche Molecular Biochemicals). The homogenate was centrifuged at 50,000×g for 60 minutes and the supernatant was aliquotted and stored at −80° C.
Compounds of the present invention were dissolved in DMSO to make 100 mM and saved as stocks at −20° C. When compounds were tested, 10-fold concentrated solutions with 10% DMSO were prepared. 10 μl of 10-fold concentrated compound solutions were added to the reaction mixture total of 100 μl.
Guanylate cyclase activity was measured by the formation of cyclic GMP from GTP in a total volume of 100 μl. Guanylate cyclase-expressed Sf9 cell high-speed supernatant (Sf9 high-speed sup) was used as an enzyme source for the assay. The reaction mixture containing 0.1 μl enzyme of Sf9 high-speed sup, compound solution, 50 mM Tris-HCl (pH 7.6), 4 mM MgCl2, 0.5 mM IBMX, 15 mM creatine phosphate, 20 μg creatine phosphokinase, 0.1% BSA and 1 mM GTP were incubated at 37° C. for 15 minutes. After the reaction, 0.9 ml of 50 mM sodium acetate buffer (pH 5.8) was added followed by boiling for 3 minutes to stop the reaction. The solution was centrifuged at 3000 rpm for 15 minutes at room temperature and cyclic GMP in 20 μl of the resulting supernatant was measured according to the protocol of Amersham cyclic GMP enzymeimmunoassay system (Amersham, RPN 226).
Compounds of the present invention were tested at 100 μM with and without 1 μM of sodium nitroprusside (SNP). YC-1 was included as a standard for each assay. The data was normalized with the activity of 100 μM YC-1 (without SNP) as 100%. Mean basal efficacy, in Table 1, was expressed as a percentage of 100 μM YC-1 (without SNP).
The mean activation, in Table 1, was calculated based on the formula: (activity of compound of the present invention at 100 μM with 1 μM SNP)−(activity of compound of on at 100 μM)/(activity of SNP at 1 μM)−(basal activity of sGC).

Take `OCc1ccc(Oc2nn(Cc3ccccc3)c3ccccc23)o1` [Example 1, {5-[(1-benzyl-1H-indazol-3-yl)oxy]-2-furyl}methanol]: the “Mean efficacy at 100 μM with 1 μM of SNP, [% of YC-1]” value (from here on “Mean efficacy at 100 μM … [% of YC-1]”) was 38 % of YC-1 and the Emax at 100 µM amounted to 9%.

As for `CN(C)CCCNC(=O)c1ccc(Oc2nn(Cc3ccccc3)c3ccccc23)o1` [Example 5, 5-[(1-benzyl-1H-indazol-3-yl)oxy]-N-[3-(dimethylamino)propyl]-2-furamide], the “Mean activation at 100 μM” value amounted to 1.7; the “Mean efficacy at 100 μM … [% of YC-1]” value is 65 % of YC-1; the Emax at 100 µM came to 4%.

As to `CCCC(CO)NC(=O)c1ccc(Oc2nn(Cc3ccccc3)c3ccccc23)o1` (centres unmarked) [Example 7, 5-[(1-benzyl-1H-indazol-3-yl)oxy]-N-[1-(hydroxymethyl)butyl]-2-furamide], the “Mean activation at 100 μM” value came to 3.1; the “Mean efficacy at 100 μM … [% of YC-1]” value was 25 % of YC-1; the Emax at 100 µM stood at 3%.

As to `CC(CCCC(C)(C)O)NC(=O)c1ccc(Oc2nn(Cc3ccccc3)c3ccccc23)o1` (centres unmarked) [Example 8, 5-[(1-benzyl-1H-indazol-3-yl)oxy]-N-(5-hydroxy-1,5-dimethylhexyl)-2-furamide], the “Mean activation at 100 μM” value was found to be 1.5; the “Mean efficacy at 100 μM … [% of YC-1]” value is 9 % of YC-1; the Emax at 100 µM was determined as 0%.

As for `O=C(NCC(O)c1ccccc1)c1ccc(Oc2nn(Cc3ccccc3)c3ccccc23)o1` (centres unmarked) [Example 9, 5-[(1-benzyl-1H-indazol-3-yl)oxy]-N-(2-hydroxy-2-phenylethyl)-2-furamide], the “Mean activation at 100 μM” value was 1.6; the “Mean efficacy at 100 μM … [% of YC-1]” value is reported as 13 % of YC-1; the Emax at 100 µM is 0%.

With `O=C(NCCN1CCOCC1)c1ccc(Oc2nn(Cc3ccccc3)c3ccccc23)o1` [Example 10, 5-[(1-benzyl-1H-indazol-3-yl)oxy]-N-[2-(4-morpholinyl)ethyl]-2-furamide], the “Mean activation at 100 μM” value was 2.0; the “Mean efficacy at 100 μM … [% of YC-1]” value is reported as 11 % of YC-1; the Emax at 100 µM worked out at 1%.

As to `c1ccc(Cn2nc(Oc3ccccn3)c3ccccc32)cc1` [Example 11, 1-benzyl-3-(2-pyridinyloxy)-1H-indazole], the “Mean activation at 100 μM” value is 2.8; the “Mean efficacy at 100 μM … [% of YC-1]” value is reported as 70 % of YC-1; the Emax at 100 µM was 9%.

Take `c1ccc(Cn2nc(Oc3ncccn3)c3ccccc32)cc1` [Example 12, 1-benzyl-3-(2-pyrimidinyloxy)-1H-indazole]: the “Mean activation at 100 μM” value was 2.6; the “Mean efficacy at 100 μM … [% of YC-1]” value is reported as 43 % of YC-1; the Emax at 100 µM was -1%.

As for `FC(F)(F)c1cncc(Oc2nn(Cc3ccccc3)c3ccccc23)c1` [Example 13, 1-benzyl-3-{[5-(trifluoromethyl)-3-pyridinyl]oxy}-1H-indazole], the “Mean activation at 100 μM” value came to 1.4; the “Mean efficacy at 100 μM … [% of YC-1]” value is recorded as 15 % of YC-1; the Emax at 100 µM came to 3%.

`NC(=O)c1cccnc1Oc1nn(Cc2ccccc2)c2ccccc12` [Example 14, 2-[(1-benzyl-1H-indazol-3-yl)oxy]nicotinamide]: the “Mean activation at 100 μM” value came to 1.8; the “Mean efficacy at 100 μM … [% of YC-1]” value is 23 % of YC-1; the Emax at 100 µM was 0%.

`O=C(O)c1ccccc1Oc1nn(Cc2ccccc2)c2ccccc12` [Example 15, 2-[(1-benzyl-1H-indazol-3-yl)oxy]benzoic acid]: the “Mean activation at 100 μM” value is 2.6; the “Mean efficacy at 100 μM … [% of YC-1]” value is 47 % of YC-1; the Emax at 100 µM worked out at 4%.

Turning to `CN(C)CCNC(=O)c1ccccc1Oc1nn(Cc2ccccc2)c2ccccc12` [Example 16, 2-[(1-benzyl-1H-indazol-3-yl)oxy]-N-[2-(dimethylamino)ethyl]benzamide], the “Mean activation at 100 μM” value worked out at 1.9; the “Mean efficacy at 100 μM … [% of YC-1]” value is on record as 15 % of YC-1; the Emax at 100 µM came out at 6%.

Turning to `CN(C)CCCN1CCN(C(=O)c2ccccc2Oc2nn(Cc3ccccc3)c3ccccc23)CC1` [Example 17, N-[3-(4-{2-[(1-benzyl-1H-indazol-3-yl)oxy]benzoyl}-1-piperazinyl)propyl]-N,N-dimethylamine], the “Mean activation at 100 μM” value was 2.0; the “Mean efficacy at 100 μM … [% of YC-1]” value is reported as 14 % of YC-1; the Emax at 100 µM worked out at 4%.

Turning to `CN(C)CCCNC(=O)c1ccccc1Oc1nn(Cc2ccccc2)c2ccccc12` [Example 18, 2-[(1-benzyl-1H-indazol-3-yl)oxy]-N-[3-(dimethylamino)propyl]benzamide], the “Mean activation at 100 μM” value was found to be 1.5; the “Mean efficacy at 100 μM … [% of YC-1]” value is reported as 10 % of YC-1; the Emax at 100 µM came out at 5%.

Regarding `O=C(NC1CCC(O)CC1)c1ccccc1Oc1nn(Cc2ccccc2)c2ccccc12` (centres unmarked) [Example 19, 2-[(1-benzyl-1H-indazol-3-yl)oxy]-N-(4-hydroxycyclohexyl)benzamide], the “Mean activation at 100 μM” value stood at 1.9; the “Mean efficacy at 100 μM … [% of YC-1]” value is listed as 12 % of YC-1; the Emax at 100 µM is 3%.

With `O=C(N[C@H]1Cc2ccccc2[C@H]1O)c1ccccc1Oc1nn(Cc2ccccc2)c2ccccc12` [Example 20, 2-[(1-benzyl-1H-indazol-3-yl)oxy]-N-[(1R,2S)-1-hydroxy-2,3-dihydro-1H-inden-2-yl]benzamide], the “Mean activation at 100 μM” value stood at 1.5; the “Mean efficacy at 100 μM … [% of YC-1]” value is recorded as 11 % of YC-1; the Emax at 100 µM was 6%.

For `CCCC(CO)NC(=O)c1ccccc1Oc1nn(Cc2ccccc2)c2ccccc12` (centres unmarked) [Example 21, 2-[(1-benzyl-1H-indazol-3-yl)oxy]-N-[1-(hydroxymethyl)butyl]benzamide], the “Mean activation at 100 μM” value amounted to 1.9; the “Mean efficacy at 100 μM … [% of YC-1]” value is recorded as 15 % of YC-1; the Emax at 100 µM was found to be 5%.

These data come from US20040048866A1 (priority 2002, published 2004).
